The text below walks through data of US11603366B2, “Crystalline form and B crystalline form of pyrazine-2(1H)-ketone compound and preparation method thereof” (ZHANGZHOU PIEN TZE HUANG PHARMACEUTICAL CO., LTD., priority 2019, dated 2023).

The data set can be described thus: Pharmacokinetic evaluation in mice, single intragastric administration. Format: in vivo, CD-1 mice (male). The note with it: 300 mpk, male CD-1 mice, plasma. On the procedure: Experimental Purposes: To Test the Pharmacokinetics of the Compound in Mice
CD-1 mice (male), vehicle (0.5% (w/v) methylcellulose 0.5% (v/v) Tween 80 aqueous solution), trifluoroacetate salt of compound 0027.
Animals in groups 1 and 2 were given 5 mg/mL and 30 mg/mL compound by single intragastric administration, respectively, with a dose volume of 10 mL/kg.
The animals were weighed before administration, and the administration volume was calculated according to the body weight.
Whole blood samples (30 μL) were collected at specified times (0.25, 0.5, 1, 2, 4, 6, 8, 24 hours) by saphenous vein collection and the actual time of collection was recorded in the test record. The acceptable error for the collection time points was ±1 minute for time points within 1 hour of administration and ±5% of the theoretical time for other time points.
All blood samples were immediately transferred to labeled commercial centrifuge tubes containing K2-EDTA. After blood samples were collected, the blood samples were centrifugated at 4° C. and 3200 rpm for 10 minutes, and the supernatant plasma was aspirated, and then quickly put into dry ice at a temperature of −20° C. or lower for LC-MS/MS analysis. And the pharmacokinetic parameters were calculated, and experimental result: See Table 5.

For the molecule `COc1cc(OC)c(Cl)c(-c2nc(-c3nc(-c4cn(C)nc4C)cnc3N)cn(C)c2=O)c1`, the Tlast came out at 24.0 h.
